# Several values for one entry are separate records, joined by “and”; a condition that tells them apart may be missing. Equal values may be shown once. Where a name gives a salt, the structure may show the parent alone.
# Assays:
# [1] = test system: mice; assay: Soporific action of hexobarbital; settings: for Duration of sleep, % effect / Lateral position, % effect: hexobarbital alone = 100
# [2] = test system: mice; assay: Histotoxic hypoxia (sodium nitroprussiate), lifespan; type: in vivo; settings: for Lifespan, % effect: Na-nitro-prussiate alone = 100
# Method: (§1) The antihypoxic properties of the new compounds were tested in the models of hypoxic normobaric, hemic and histotoxic hypoxia. The hypoxic (hypercapnic) normobaric hypoxia was induced by placing the mice in hermetically sealed transparent boxes, subdivided into compartments, 80 cm^3 each. The animals were observed until all respiratory movements ceased. The hemic hypoxia was induced by the intraperitoneal administration of sodium nitrite in a dose of 400 mg/kg. The hystotoxic hypoxia was induced by the intraperitoneal administration of sodium nitroprussiate, in a dose of a 20 mg/kg dosage.
# [3] = test system: mice; assay: Hypoxic (hypercapnic) normobaric hypoxia, lifespan; type: in vivo; settings: for Average lifespan: control 411 ± 11.9, P < 0.001; for Lifespan, % effect: control = 100
# Method: as §1
# [4] = test system: mice; assay: Rotating rod: myorelaxation and movement coordination; type: in vivo, white crossbred mice; settings: same dosage range (0.1 to 150 mg/kg), entire test period 3.5 hours
# Method: (§2) The myorelaxing effect of the new compounds was tested by the method of the "rotating rod"(Dunham N. W., Miga T. S., A note on a simplex apparatus for detecting neurological deficit in rat and mice, J. Am. Pharm. Ass., 1957, vol. 46, No. 3, pp. 208-209), which allows one to record any abnormalities in coordination and balance, as well as ataxia. The mice in the laboratory tests were placed on a horizontal rod, 2 cm in diameter, rotating at a speed of 5 revolutions per minute. The object was to register the number of mice which were able to maintain equilibrium on the rod for two minutes. Any presence of a myorelaxing component was considered to be a side effect of the substance being studied.
# [5] = test system: central nervous system; assay: Neuropharmacological screening, overall findings; type: in vivo, mice; settings: of all the salts derived
# Method: as §2
# [6] = test system: mice; assay: Orientation reflexes: test of ascent onto an inclined net; settings: 0.1 to 150 mg/kg
# [7] = test system: mice; assay: Soporific action of barbital sodium; settings: for Duration of sleep, % effect / Lateral position, % effect: barbital sodium alone = 100; for increase of sleep duration over control group: barbital sodium
# [8] = test system: mice; assay: Spontaneous motor activity (SMA), 40-channel automatic motor meter; settings: for Average SMA, M ± m: control 632.8 ± 35.2; for Relative change in activity (%): control = 100
# [9] = Solubility and hygroscopicity; type: physicochemical; settings: powder
# [10] = Acute toxicity in mice (Litchfield-Wilcockson); type: in vivo, white crossbred mice; settings: mouse, in vivo
# [11] = test system: mice; assay: Acute toxicity in mice (Litchfield-Wilcockson); type: in vivo, white crossbred mice; settings: i.p., single dose
# [12] = test system: mice; assay: Conditioned reaction of passive avoidance (CPRA), amnesia by electric shock; type: in vivo; settings: for Latent period after training: 24 h, amnesia control 31.1; for % effect (latent period): control + amnesia 91.2, w/o amnesia 288.1; for Δt, increase in latent period (t ± m, sec): amnesia control -3 ± 6
# Source text: The effect produced by the new substance on the processes of the central nervous system was examined on the model of one-time training of mice, of conditioned reaction of passive avoidance (CPRA), where the amnesic effect was produced by electric shock. During the tests, a two-section chamber was used to condition a certain reflex to the lit and darkened sections. First, for two minutes, the amount of time was registered, that a mouse spent in the lit section before entering the darkened section. Then, while in the darkened section, the animal would receive a single electric shock through the electrode floor (training). The training was immediately followed by an electric shock (50 Hz, 0.2 see). […] The substance was intraperitoneally administered 40 min. prior to the start of the training, the control group received a physiological solution. […] The anti-amnesic properties of the new compound are represented by an increase in the latent period before and after the training. (Δt)
# [13] = 1 mg/kg i.p. + hexobarbital 100 mg/kg
compound,measurement,setting,value
"CC(C)(CO)C(=O)C(=O)NCCCC(=O)O [KPA-Ca, calcium salt of ketopantoyl aminobutyrate]",Duration of sleep,[1]; [13],44.6 ± 5.2 min
same,Lateral position,[1]; [13],2.5 ± 0.17 min
same,"Duration of sleep, % effect",[1]; 1 mg/kg,96.3%
same,"Lateral position, % effect",[1]; 1 mg/kg,104.2%
same,Lateral position,[1]; 10 mg/kg i.p. + hexobarbital 100 mg/kg,2.4 ± 0.16 min
same,Duration of sleep,"[1]; 10 mg/kg i.p. + hexobarbital 100 mg/kg, P < 0.01",67.2 ± 4.3 min
same,"Duration of sleep, % effect",[1]; 10 mg/kg,145.1%
same,"Lateral position, % effect",[1]; 10 mg/kg,100%
same,Lateral position,[1]; 25 mg/kg i.p. + hexobarbital 100 mg/kg,2.5 ± 0.2 min
same,Duration of sleep,"[1]; 25 mg/kg i.p. + hexobarbital 100 mg/kg, P < 0.001",60.6 ± 1.9 min
same,"Duration of sleep, % effect",[1]; 25 mg/kg,130.9%
same,"Lateral position, % effect",[1]; 25 mg/kg,104.2%
same,Lateral position,[1]; 50 mg/kg i.p. + hexobarbital 100 mg/kg,2.3 ± 0.15 min
same,Duration of sleep,"[1]; 50 mg/kg i.p. + hexobarbital 100 mg/kg, P < 0.001",70.7 ± 3.1 min
same,increase of sleep duration,"[1]; 50 mg/kg, hexobarbital",52.7%
same,"Duration of sleep, % effect",[1]; 50 mg/kg,152.7%
same,"Lateral position, % effect",[1]; 50 mg/kg,95.8%
same,Lateral position,[1]; 100 mg/kg i.p. + hexobarbital 100 mg/kg,2.4 ± 0.22 min
same,Duration of sleep,"[1]; 100 mg/kg i.p. + hexobarbital 100 mg/kg, P < 0.001",93.7 ± 4.3 min
same,increase of sleep duration over control group (maximum effect),"[1]; 100 mg/kg, hexobarbital",102.4%
same,"Duration of sleep, % effect",[1]; 100 mg/kg,202.4%
same,"Lateral position, % effect",[1]; 100 mg/kg,100%
same,Lateral position,[1]; 150 mg/kg i.p. + hexobarbital 100 mg/kg,2.5 ± 0.34 min
same,Duration of sleep,"[1]; 150 mg/kg i.p. + hexobarbital 100 mg/kg, P < 0.001",86.4 ± 4 min
same,"Duration of sleep, % effect",[1]; 150 mg/kg,186.6%
same,"Lateral position, % effect",[1]; 150 mg/kg,104.2%
same,change in effect on raising the dose,[1]; above 100 mg/kg,not noticeable change in the effect
same,effect on the lateral position,[1]; hexobarbital,no effect on the lateral position
same,Average lifespan,[2]; 10 mg/kg + Na-nitro-prussiate 20 mg/kg,798 ± 38 s
same,"Lifespan, % effect",[2]; 10 mg/kg,104.3%
same,Average lifespan,[2]; 25 mg/kg + Na-nitro-prussiate 20 mg/kg,855 ± 43.2 s
same,"Lifespan, % effect",[2]; 25 mg/kg,111.8%
same,increase in lifespan,[2]; 50 mg/kg,21.6%
same,Average lifespan,"[2]; 50 mg/kg + Na-nitro-prussiate 20 mg/kg, P < 0.05",930 ± 55.1 s
same,"Lifespan, % effect",[2]; 50 mg/kg,121.6%
same,increase in lifespan,[2]; 100 mg/kg,38.4%
same,Average lifespan,"[2]; 100 mg/kg + Na-nitro-prussiate 20 mg/kg, P < 0.01",1059 ± 64 s
same,"Lifespan, % effect",[2]; 100 mg/kg,138.4%
same,Average lifespan,[3]; 10 mg/kg,558 ± 21.5 s
same,"Lifespan, % effect",[3]; 10 mg/kg,135.8%
same,Average lifespan,[3]; 25 mg/kg,570 ± 17.3 s
same,"Lifespan, % effect",[3]; 25 mg/kg,138.7%
same,Average lifespan,[3]; 50 mg/kg,588 ± 22.4 s
same,"Lifespan, % effect",[3]; 50 mg/kg,143.1%
same,Average lifespan,[3]; 100 mg/kg,600 ± 30.7 s
same,"Lifespan, % effect",[3]; 100 mg/kg,146%
same,extension of lifespan compared to control group,[3]; 10 to 100 mg/kg,35.8-46%
same,"ataxia, myorelaxation, loss of movement coordination",[4],"did not induce any ataxia, myorelaxation or loss of movement coordination"
same,properties compared with the other salts,[5],best properties
same,effect on exploratory behaviour,[6],"does not disturb the ""exploratory"" behaviour"
same,"Duration of sleep, % effect",[7]; 1 mg/kg,99.9%
same,"Lateral position, % effect",[7]; 1 mg/kg,69.6%
same,"Duration of sleep, % effect",[7]; 10 mg/kg,122.7%
same,"Lateral position, % effect",[7]; 10 mg/kg,61.4%
same,increase of sleep duration over control group,[7]; 25 mg/kg,126.5%
same,"Duration of sleep, % effect",[7]; 25 mg/kg,226.5%
same,"Lateral position, % effect",[7]; 25 mg/kg,67.3%
same,increase of sleep duration over control group,[7]; 50 mg/kg,95.1% and 95%
same,"Duration of sleep, % effect",[7]; 50 mg/kg,195.1%
same,"Lateral position, % effect",[7]; 50 mg/kg,68.7%
same,"Duration of sleep, % effect",[7]; 100 mg/kg,229.3%
same,"Lateral position, % effect",[7]; 100 mg/kg,66.7%
same,increase of sleep duration over control group,[7],129.3%
same,decrease in number of runs in the motor meter (the same result),[8]; 10 mg/kg,30%
same,"dose for 30% decrease in runs, compared with pantogam dose",[8]; 10 mg/kg KPA-Ca vs 500 mg/kg pantogam,50 times less
same,"Average SMA, M ± m","[8]; 10 mg/kg i.p., 60 min before, number of runs",482.8 ± 101.8
same,Relative change in activity (%),[8]; 10 mg/kg i.p.,76.3%
same,"Average SMA, M ± m","[8]; 25 mg/kg i.p., P < 0.01",369.1 ± 68.7
same,Relative change in activity (%),[8]; 25 mg/kg i.p.,58.3%
same,"Average SMA, M ± m","[8]; 50 mg/kg i.p., P < 0.01",338.9 ± 74.5
same,Relative change in activity (%),[8]; 50 mg/kg i.p.,53.6%
same,"Average SMA, M ± m","[8]; 100 mg/kg i.p., P < 0.01",270.4 ± 75.3
same,Relative change in activity (%),[8]; 100 mg/kg i.p.,42.7%
same,decrease in motor activity (the same effect),[8]; 150 mg/kg,70%
same,"Average SMA, M ± m","[8]; 150 mg/kg i.p., P < 0.001",190.6 ± 28.2
same,Relative change in activity (%),[8]; 150 mg/kg i.p.,30.1%
same,dose of greatest effect on motor activity,"[8]; SMA test, mice",150 mg/kg
same,effect on motor activity (in words),"[8]; SMA test, mice",decreases the motor activity
same,hygroscopicity,[9],hygroscopic
same,LD50,"[10]; intravenous, read-out: DL50 (the source's name)",1040 ± 13.5 mg/kg
same,MTD,"[10]; ip, read-out: maximum tolerance level",1500 mg/kg
same,LD10 (acute toxicity),[11],2234.3 ± 60.7 mg/kg
same,Latent period before training,"[12]; 10 mg/kg i.p., 40 min before training",27.1 s
same,Latent period after training,[12]; 10 mg/kg i.p.,90.3 s
same,% effect (latent period),[12]; 10 mg/kg i.p.,334.4%
same,"Δt, increase in latent period (t ± m, sec)","[12]; 10 mg/kg i.p., spread 12.6, P < 0.01",63.2 s
same,Latent period before training,[12]; 25 mg/kg i.p.,31.4 s
same,Latent period after training,[12]; 25 mg/kg i.p.,102.4 s
same,"Δt, increase in latent period (t ± m, sec)","[12]; 25 mg/kg i.p., P < 0.001",71 ± 9 s
same,% effect (latent period),[12]; 25 mg/kg i.p.,396.1%
same,Latent period before training,[12]; 50 mg/kg i.p.,30.6 s
same,Latent period after training,[12]; 50 mg/kg i.p.,77.8 s
same,% effect (latent period),[12]; 50 mg/kg i.p.,254.2%
same,"Δt, increase in latent period (t ± m, sec)","[12]; 50 mg/kg i.p., spread 13.3, P < 0.01",47.2 s
same,Latent period before training,[12]; 100 mg/kg i.p.,31.8 s
same,Latent period after training,[12]; 100 mg/kg i.p.,82.8 s
same,"Δt, increase in latent period (t ± m, sec)","[12]; 100 mg/kg i.p., P < 0.01",51 ± 14.1 s
same,% effect (latent period),[12]; 100 mg/kg i.p.,260.4%
same,anti-amnesic effect (in words),[12]; electric shock amnesia,counteracted the amnesic effect of the electric shock
